# What was measured:
# soybean [1] = experiment: Test Example 5: effect on crop by foliage application, plastic box (symbol d); format: in vivo; settings: 320 g/ha, 3 weeks after application
# Method in brief: (§1)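 Foliage-application test plants come from spot sowing in sterilized diluvial soil under a soil layer of about 1.5 cm, grown at 25° C. to 30° C. in a greenhouse.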
# Digitaria ciliaris [2] = experiment: Test Example 4: herbicidal effect by soil treatment (symbol F); format: in vivo; settings: application herbicide amount 320 g/ha
# Excerpt: (§2) Herbicidal Effect Test by Soil Treatment
# (§3) Sterilized diluvial soil was placed in a plastic box having a length of 21 cm, a width of 13 cm, and a depth of 7 cm. Each of the seeds of Digitaria ciliaris, Setaria viridis, Echinochloa crus-galli var. crus-galli, Avena fatua, Alopecurus myosuroides, Lolium multiflorum Lam., Apera spica-venti, Abutilon theophrasti, Amaranthus retroflexus, Chenopodium album, Stellaria media, Galium spurium, Veronica persica, corn, soybean, rice, wheat, beet, and rapeseed was sowed in a spot-like manner and was covered with the soil of a thickness of about 1.5 cm. Subsequently, the emulsion agent of the compound present invention prepared in accordance with Formulation Example 2 was diluted with water so as to be a predetermined herbicide amount and the diluted emulsion agent was uniformly applied to the surface of the soil with a small-size spray. The plastic box was placed in a greenhouse of 25° C. to 30° C. to grow plant. 3 weeks later from the herbicide application, the effect to each plant was investigated in accordance with the criteria of Test Example 1.
# Galium spurium = experiment: Test Example 4: herbicidal effect by soil treatment (symbol Q); format: in vivo; settings: application herbicide amount 320 g/ha
# Excerpt: as §2, §3
# Alopecurus myosuroides [3] = experiment: Test Example 5: herbicidal effect by foliage application, plastic box (symbol J); format: in vivo; settings: 320 g/ha, 3 weeks after application
# Method in brief: (§4)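 Leaf-applied emulsion, water-diluted to a preset herbicide dose, on two-week-old seedlings raised in a 25° C. to 30° C. greenhouse; injury rated at 3 weeks using earlier criteria.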
# Chenopodium album [4] = experiment: Test Example 5: herbicidal effect by foliage application, plastic box (symbol O); format: in vivo; settings: 320 g/ha, 3 weeks after application
# Method in brief: as §4
# Amaranthus retroflexus [5] = experiment: Test Example 5: herbicidal effect by foliage application, plastic box (symbol N); format: in vivo; settings: 320 g/ha, 3 weeks after application
# Method in brief: as §4
# Avena fatua [6] = experiment: Test Example 5: herbicidal effect by foliage application, plastic box (symbol I); format: in vivo; settings: 320 g/ha, 3 weeks after application
# Method in brief: as §4
# Avena fatua [7] = experiment: Test Example 4: herbicidal effect by soil treatment (symbol I); format: in vivo; settings: application herbicide amount 320 g/ha
# Excerpt: as §2, §3
# corn [8] = experiment: Test Example 5: effect on crop by foliage application, plastic box (symbol c); format: in vivo; settings: 320 g/ha, 3 weeks after application
# Method in brief: as §1
# Apera spica-venti [9] = experiment: Test Example 4: herbicidal effect by soil treatment (symbol L); format: in vivo; settings: application herbicide amount 320 g/ha
# Excerpt: as §2, §3
# beet [10] = experiment: Test Example 4: effect on crop by soil treatment (symbol f); format: in vivo; settings: application herbicide amount 320 g/ha
# Excerpt: as §2
# (§5) Sterilized diluvial soil was placed in a plastic box having a length of 21 cm, a width of 13 cm, and a depth of 7 cm. Each of the seeds of Digitaria ciliaris, Setaria viridis, Echinochloa crus-galli var. crus-galli, Avena fatua, Alopecurus myosuroides, Lolium multiflorum Lam., Apera spica-venti, Abutilon theophrasti, Amaranthus retroflexus, Chenopodium album, Stellaria media, Galium spurium, Veronica persica, corn, soybean, rice, wheat, beet, and rapeseed was sowed in a spot-like manner and was covered with the soil of a thickness of about 1.5 cm. […] The plastic box was placed in a greenhouse of 25° C. to 30° C. to grow plant.
# Apera spica-venti [11] = experiment: Test Example 5: herbicidal effect by foliage application, plastic box (symbol L); format: in vivo; settings: 320 g/ha, 3 weeks after application
# Method in brief: as §4
# Veronica persica [12] = experiment: Test Example 4: herbicidal effect by soil treatment (symbol R); format: in vivo; settings: application herbicide amount 320 g/ha
# Excerpt: as §2, §3
# Chenopodium album [13] = experiment: Test Example 4: herbicidal effect by soil treatment (symbol O); format: in vivo; settings: application herbicide amount 320 g/ha
# Excerpt: as §2, §3
# Setaria viridis [14] = experiment: Test Example 5: herbicidal effect by foliage application, plastic box (symbol G); format: in vivo; settings: 320 g/ha, 3 weeks after application
# Method in brief: as §4
# rapeseed [15] = experiment: Test Example 5: effect on crop by foliage application, plastic box (symbol g); format: in vivo; settings: 320 g/ha, 3 weeks after application
# Method in brief: as §1
# soybean [16] = experiment: Test Example 4: effect on crop by soil treatment (symbol d); format: in vivo; settings: application herbicide amount 320 g/ha
# Excerpt: as §2, §5
# Digitaria ciliaris [17] = experiment: Test Example 5: herbicidal effect by foliage application, plastic box (symbol F); format: in vivo; settings: 320 g/ha, 3 weeks after application
# Method in brief: as §4
# Stellaria media [18] = experiment: Test Example 5: herbicidal effect by foliage application, plastic box (symbol P); format: in vivo; settings: 320 g/ha, 3 weeks after application
# Method in brief: as §4
# Abutilon theophrasti [19] = experiment: Test Example 5: herbicidal effect by foliage application, plastic box (symbol M); format: in vivo; settings: 320 g/ha, 3 weeks after application
# Method in brief: as §4
# Abutilon theophrasti [20] = experiment: Test Example 4: herbicidal effect by soil treatment (symbol M); format: in vivo; settings: application herbicide amount 320 g/ha
# Excerpt: as §2, §3
# wheat [21] = experiment: Test Example 4: effect on crop by soil treatment (symbol e); format: in vivo; settings: application herbicide amount 320 g/ha
# Excerpt: as §2, §5
# corn [22] = experiment: Test Example 4: effect on crop by soil treatment (symbol c); format: in vivo; settings: application herbicide amount 320 g/ha
# Excerpt: as §2, §5
# Stellaria media [23] = experiment: Test Example 4: herbicidal effect by soil treatment (symbol P); format: in vivo; settings: application herbicide amount 320 g/ha
# Excerpt: as §2, §3
# beet [24] = experiment: Test Example 5: effect on crop by foliage application, plastic box (symbol f); format: in vivo; settings: 320 g/ha, 3 weeks after application
# Method in brief: as §1
# Alopecurus myosuroides [25] = experiment: Test Example 4: herbicidal effect by soil treatment (symbol J); format: in vivo; settings: application herbicide amount 320 g/ha
# Excerpt: as §2, §3
# Amaranthus retroflexus [26] = experiment: Test Example 4: herbicidal effect by soil treatment (symbol N); format: in vivo; settings: application herbicide amount 320 g/ha
# Excerpt: as §2, §3
# [27] = system: Echinochloa crus-galli var. crus-galli; experiment: Test Example 5: herbicidal effect by foliage application, plastic box (symbol H); format: in vivo; settings: 320 g/ha, 3 weeks after application
# Method in brief: as §4
# Lolium multiflorum Lam. [28] = experiment: Test Example 4: herbicidal effect by soil treatment (symbol K); format: in vivo; settings: application herbicide amount 320 g/ha
# Excerpt: as §2, §3
# Setaria viridis [29] = experiment: Test Example 4: herbicidal effect by soil treatment (symbol G); format: in vivo; settings: application herbicide amount 320 g/ha
# Excerpt: as §2, §3
# [30] = system: Echinochloa oryzacola Vasing.; experiment: Test Example 2: herbicidal activity, application during weed generation in submerged conditions (symbol A); format: in vivo; settings: Table 23; application herbicide amount 320 g/ha; grade 0-5 by criteria of Test Example 1
# Method in brief: (§6)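 Compound was applied as a water-diluted emulsion into the standing water of flooded pots (4 cm) once co-sown weeds reached one to two leaves. Greenhouse temperature was 25° C. to 30° C., soil was alluvial, and each species was rated visually after 3 weeks.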
# wheat [31] = experiment: Test Example 5: effect on crop by foliage application, plastic box (symbol e); format: in vivo; settings: 320 g/ha, 3 weeks after application
# Method in brief: as §1
# Veronica persica [32] = experiment: Test Example 5: herbicidal effect by foliage application, plastic box (symbol R); format: in vivo; settings: 320 g/ha, 3 weeks after application
# Method in brief: as §4
# Monochoria vaginalis = experiment: Test Example 2: herbicidal activity, application during weed generation in submerged conditions (symbol C); format: in vivo; settings: Table 23; application herbicide amount 320 g/ha; grade 0-5 by criteria of Test Example 1
# Method in brief: as §6
# Lolium multiflorum Lam. [33] = experiment: Test Example 5: herbicidal effect by foliage application, plastic box (symbol K); format: in vivo; settings: 320 g/ha, 3 weeks after application
# Method in brief: as §4
# [34] = system: Echinochloa crus-galli var. crus-galli; experiment: Test Example 4: herbicidal effect by soil treatment (symbol H); format: in vivo; settings: application herbicide amount 320 g/ha
# Excerpt: as §2, §3
# rice plant = experiment: Test Example 5: effect on crop by foliage application, plastic box (symbol b); format: in vivo; settings: 320 g/ha, 3 weeks after application
# Method in brief: as §1
# Scirpus juncoides = experiment: Test Example 2: herbicidal activity, application during weed generation in submerged conditions (symbol B); format: in vivo; settings: Table 23; application herbicide amount 320 g/ha; grade 0-5 by criteria of Test Example 1
# Method in brief: as §6
# rapeseed [35] = experiment: Test Example 4: effect on crop by soil treatment (symbol g); format: in vivo; settings: application herbicide amount 320 g/ha
# Excerpt: as §2, §5
# rice = experiment: Test Example 4: effect on crop by soil treatment (symbol b); format: in vivo; settings: application herbicide amount 320 g/ha
# Excerpt: as §2, §5
smiles,measurement,setting,value
CON=C(C)CC1CC(OC)=C(c2c(C)cc(O)cc2C)C1=O (centres unmarked) [6-069],melting point,,192 to 195 °C
CC(=O)CC1CC(O)=C(c2c(C)cc(C3CC3)cc2C)C1=O (centres unmarked) [7-013],"d: soybean, effect on crop (criteria of Test Example 1)",soybean [1],0 (Herbicidal ratio of 5% or lower (almost no effect))
same,"Herbicidal effect grade, F: Digitaria ciliaris",Digitaria ciliaris [2],3 (Herbicidal ratio of 40% or higher and lower than 70%)
same,"Herbicidal effect grade, Q: Galium spurium",Galium spurium,0 (Herbicidal ratio of 5% or lower (almost no effect))
same,"J: Alopecurus myosuroides, herbicidal effect (criteria of Test Example 1)",Alopecurus myosuroides [3],3 (Herbicidal ratio of 40% or higher and lower than 70%)
same,"O: Chenopodium album, herbicidal effect (criteria of Test Example 1)",Chenopodium album [4],0 (Herbicidal ratio of 5% or lower (almost no effect))
same,"N: Amaranthus retroflexus, herbicidal effect (criteria of Test Example 1)",Amaranthus retroflexus [5],5 (Herbicidal ratio of 90% or more (almost completely withered))
same,"I: Avena fatua, herbicidal effect (criteria of Test Example 1)",Avena fatua [6],1 (Herbicidal ratio of 5% or higher and lower than 20%)
same,"Herbicidal effect grade, I: Avena fatua",Avena fatua [7],0 (Herbicidal ratio of 5% or lower (almost no effect))
same,"c: corn, effect on crop (criteria of Test Example 1)",corn [8],0 (Herbicidal ratio of 5% or lower (almost no effect))
same,"Herbicidal effect grade, L: Apera spica-venti",Apera spica-venti [9],0 (Herbicidal ratio of 5% or lower (almost no effect))
same,"Effect on crop grade, f: beet",beet [10],0 (Herbicidal ratio of 5% or lower (almost no effect))
same,"L: Apera spica-venti, herbicidal effect (criteria of Test Example 1)",Apera spica-venti [11],0 (Herbicidal ratio of 5% or lower (almost no effect))
same,"Herbicidal effect grade, R: Veronica persica",Veronica persica [12],0 (Herbicidal ratio of 5% or lower (almost no effect))
same,"Herbicidal effect grade, O: Chenopodium album",Chenopodium album [13],0 (Herbicidal ratio of 5% or lower (almost no effect))
same,"G: Setaria viridis, herbicidal effect (criteria of Test Example 1)",Setaria viridis [14],2 (Herbicidal ratio of 20% or higher and lower than 40%)
same,"g: rapeseed, effect on crop (criteria of Test Example 1)",rapeseed [15],1 (Herbicidal ratio of 5% or higher and lower than 20%)
same,"Effect on crop grade, d: soybean",soybean [16],0 (Herbicidal ratio of 5% or lower (almost no effect))
same,"F: Digitaria ciliaris, herbicidal effect (criteria of Test Example 1)",Digitaria ciliaris [17],4 (Herbicidal ratio of 70% or higher and lower than 90%)
same,"P: Stellaria media, herbicidal effect (criteria of Test Example 1)",Stellaria media [18],0 (Herbicidal ratio of 5% or lower (almost no effect))
same,"M: Abutilon theophrasti, herbicidal effect (criteria of Test Example 1)",Abutilon theophrasti [19],0 (Herbicidal ratio of 5% or lower (almost no effect))
same,"Herbicidal effect grade, M: Abutilon theophrasti",Abutilon theophrasti [20],0 (Herbicidal ratio of 5% or lower (almost no effect))
same,"Effect on crop grade, e: wheat",wheat [21],0 (Herbicidal ratio of 5% or lower (almost no effect))
same,"Effect on crop grade, c: corn",corn [22],0 (Herbicidal ratio of 5% or lower (almost no effect))
same,"Herbicidal effect grade, P: Stellaria media",Stellaria media [23],0 (Herbicidal ratio of 5% or lower (almost no effect))
same,"f: beet, effect on crop (criteria of Test Example 1)",beet [24],0 (Herbicidal ratio of 5% or lower (almost no effect))
same,"Herbicidal effect grade, J: Alopecurus myosuroides",Alopecurus myosuroides [25],0 (Herbicidal ratio of 5% or lower (almost no effect))
same,"Herbicidal effect grade, N: Amaranthus retroflexus",Amaranthus retroflexus [26],0 (Herbicidal ratio of 5% or lower (almost no effect))
same,"H: Echinochloa crus-galli var. crus-galli, herbicidal effect (criteria of Test Example 1)",[27],1 (Herbicidal ratio of 5% or higher and lower than 20%)
same,"Herbicidal effect grade, K: Lolium multiflorum Lam.",Lolium multiflorum Lam. [28],0 (Herbicidal ratio of 5% or lower (almost no effect))
same,"Herbicidal effect grade, G: Setaria viridis",Setaria viridis [29],0 (Herbicidal ratio of 5% or lower (almost no effect))
same,"Herbicidal effect grade, A: Echinochloa oryzacola Vasing.",[30],2 (Herbicidal ratio of 20% or higher and lower than 40%)
same,"e: wheat, effect on crop (criteria of Test Example 1)",wheat [31],0 (Herbicidal ratio of 5% or lower (almost no effect))
same,"R: Veronica persica, herbicidal effect (criteria of Test Example 1)",Veronica persica [32],0 (Herbicidal ratio of 5% or lower (almost no effect))
same,"Herbicidal effect grade, C: Monochoria vaginalis",Monochoria vaginalis,0 (Herbicidal ratio of 5% or lower (almost no effect))
same,"K: Lolium multiflorum Lam., herbicidal effect (criteria of Test Example 1)",Lolium multiflorum Lam. [33],3 (Herbicidal ratio of 40% or higher and lower than 70%)
same,"Herbicidal effect grade, H: Echinochloa crus-galli var. crus-galli",[34],0 (Herbicidal ratio of 5% or lower (almost no effect))
same,"b: directly sowed rice plant, effect on crop (criteria of Test Example 1)",rice plant,1 (Herbicidal ratio of 5% or higher and lower than 20%)
same,"Herbicidal effect grade, B: Scirpus juncoides",Scirpus juncoides,0 (Herbicidal ratio of 5% or lower (almost no effect))
same,"Effect on crop grade, g: rapeseed",rapeseed [35],0 (Herbicidal ratio of 5% or lower (almost no effect))
same,"Effect on crop grade, b: directly sowed rice plant",rice,4 (Herbicidal ratio of 70% or higher and lower than 90%)
